Laboratory results as given in patent US7160862B2, “Integrin binding motif containing peptides and methods of treating skeletal diseases” (Acologix, Inc., priority 2000, dated 2007).
Where no end group is shown, it is not given here.

Key:
[1] = test system: calvaria from 4-days-old mice; experiment: Fetal mouse calvarial assay (mouse calvarial organ culture, histomorphometry of new bone area); format: cell-based; conditions: 7-day organ culture of mouse calvaria halves in BGj medium with 0.1% BSA
Experimental: FGF-1 was purchased from Peprotech Inc. (Rocky Hill, N.J.). RGD-1, 2, 3, 4, 5 and 6 (referred to here as D-00001, D-00002, D-00003, D-00004, D-00005 and D-00006) were provided by Dr. Nomizu (Hokkaido University, Japan).
Pregnant ICR mice were purchased from SLC Japan Co. Ltd. (Shizuoka, Japan).
Mouse calvarial organ culture was performed as described in Mundy G et al. Science 286: 1946–1949, 1999 and Traianedes K et al. Endocrinology 139: 3178–3184, 1998. The calvaria from 4-days-old mice were excised and cut in half along the sagittal suture. Each half of the calvaria was placed on a stainless steel grid in a 12-well tissue culture dish (Asahi Glass Techno Corp., Funabashi, Japan). Each well contained 1.5 ml of BGj medium (Sigma, St. Louis, Mo.) supplemented with 0.1% bovine serum albumin (Sigma) and each compound. FGF-1 was used as a positive control as described by Mundy et al. The medium was changed at day 1 and 4, and the assay was terminated at day 7.
Calvaria was fixed with 10% neutral-buffered formalin, decalcified with 4.13% EDTA and embedded in paraffin. […] sections were made and stained with hematoxylin and eosin. New bone area was measured using Image-Pro Plus (Media Cybernetics, Silver Spring, Md.).

[2] = test system: calvariae of four week old mice; experiment: In vivo bone formation study (mouse calvaria growth assay); conditions: for bone area of calvaria sections compared to vehicle treated group: s.c. adjacent to calvariae twice a day for five days, D-00006 20 μg/kg/day, FGF-1 12.5 μg/kg/day, excised 15 days after last administration
Experimental: FGF-1 was purchased from Peprotech Inc. (Rocky Hill, N.J.). RGD-6 (referred to here as D-00006) was synthesized by CS Bio (San Carlos, Calif.) under the instruction of the inventors.
Four week old mice were purchased from SLC Japan Co. Ltd. (Shizuoka, Japan) and randomized to three groups (n=5).
D-00006 (20 μg/kg/day), FGF-1 (12.5 μg/kg/day), or vehicle (saline) was subcutaneously injected into the soft tissues adjacent to the calvariae of the test animals. The daily amount of the samples were divided by two, respectively, and injected twice a day for five days. After 15 days of the last administration, the calvariae were excised and cut in half along the sagittal suture, and provided to the Histomorphometrical analysis.
Calvaria was fixed with 10% neutral-buffered formalin, decalcified with 4.13% EDTA and embedded in paraffin. 4mm-thickness sections were made and stained with hematoxylin and eosin. New bone area was measured using Image-Pro Plus (Media Cybernetics, Silver Spring, Md.).

[3] = test system: ovariectomized female Sprague-Dawley rats; experiment: Effect on renal phosphate excretion in ovariectomized rats (serum and urine chemistry); format: in vivo, rat; conditions: Ovx rats, D-00006 20 and 200 μg/kg/day
Excerpt: Forty 3-month old virgin female Sprague-Dawley rats (Harlan Sprague Dawley, Inc.) were acclimated for one week prior to beginning the experiments.
One day prior to the initiation of treatments, the animals were anesthetized with a ketamin/xylazine anesthetic mixture, and animals in groups 2–5 were ovariectomized.
Urine was collected in metabolic cages on Day 41. Blood and urine samples were collected for chemistry and bone turnover markers assays at the end of the 41-day treatment period. Prior to urine and blood collections, the animals were placed in metabolic cages and deprived of food for an overnight fast period of 18 hours. Urine samples were collected and the volumes recorded. The urine samples were then centrifuges at approximately 3000×g for 10 minutes in a refrigerated centrifuge. The samples were filtered to remove contaminating sediments.

Row | Substance | ability to enhance bone growth (new bone area) [1] | efficacy on bone area relative to FGF-1 ([2]; D-00006 20 μg/kg/day vs FGF-1 12.5 μg/kg/day) | bone area of calvaria sections compared to vehicle treated group [2] | serum phosphorus ([3]; 41-day treatment) | total amount of phosphorus in the 18-hour urine collections ([3]; Day 41) | percentage of tubular reabsorption of phosphorus ([3]; derived urine parameter) | phosphate clearance ([3]; derived urine parameter)
1 | TDLQERGDNDISPFSGDGQPFKD [D-00006] | best results | equivalent to that of FGF-1 | significant expansion of bone area | dose-dependent increase | significant decrease | higher | lower
2 | FGF-1: fibroblast growth factor-1 purchased from Peprotech Inc., used as a positive control [reference compound] | – | – | significant expansion of bone area | – | – | – | –
3 | ERGDNDISPFSGDGQ (ERGDNDISPFSGDGQ-NH2) [D-00004] | best results | – | – | – | – | – | –
